Assay results as given in article PMC12118597 (Science Advances, 2025).
Where “and” joins values, the source holds several entries; their conditions need not be identical. Equal entries are not always repeated. Where two headings read alike, the source gives them in different places.

How the values were obtained:
[1] = molecular target: T1, SARS-CoV-2 NSP3 macrodomain (Mac1) (Severe acute respiratory syndrome coronavirus 2, UniProt P0DTD1); assay: biochemical; format: binding
[2] = molecular target: T1, SARS-CoV-2 NSP3 macrodomain (Mac1); format: binding; conditions: for Number of isomers bound: ligand modeling, Mac1 crystal soak; for Isomers modeled: stereoisomer(s) modeled as bound, residues 201/202/203; for 1-BDC: PanDDA background density correction factor; for PanDDA run, overall: Hit / PanDDA run, DMSO background map: 1-BDC / PanDDA run, DMSO background map: Hit / PanDDA run, TFA/DMSO background map: 1-BDC / PanDDA run, TFA/DMSO background map: Hit: crystal soak 10 mM; for PanDDA run, overall: Hit: P43 crystal form; for Total number of conformations: ligand conformations modeled in the crystal structure; for 2*(1-BDC) (%): occupancy estimate from PanDDA; for Refined ligand occupancy (%): refined crystallographic occupancy
[3] = read-out: IC50 (confirmatory HTRF dose-response screen)
[4] = compound at 200 μM, mean of three to four technical replicates, read-out: % competition at 200 μM (preliminary HTRF screen)
[5] = single dose concentration 200 μM (TS-FrankenROCS series)
[6] = SARS CoV-2 macrodomain HTRF assay
[7] = SARS CoV-2 macrodomain HTRF assay, single dose concentration 200 μM, read-out: Average % competition
[8] = SARS CoV-2 macrodomain HTRF assay, dose-response, read-out: IC50
[9] = SARS CoV-2 macrodomain HTRF assay, single dose concentration 200 μM
[10] = HTRF binding curve, SARS-CoV-2 Mac1
[11] = SARS CoV-2 macrodomain HTRF assay, dose-response
[12] = Single dose, concentration 200 μM

| Compound | Number of isomers bound [2] | inhibition at 200 µM [1, 4] [%] | PanDDA run, TFA/DMSO background map: 1-BDC [2] | PanDDA run, TFA/DMSO background map: Hit [2] | Average % competition [1, 12] [%] | also measured |
| --- | --- | --- | --- | --- | --- | --- |
| OCC(Cc1ccccc1)Nc1ncnc2[nH]ccc12 (stereo not drawn) [AVI-313] | 2 | – | – | – | – | Ligand efficiency (binding enery per heavy atom) [1]: 0.27; Ki ([1]; dose-response): 120 µM; IC50 [1, 3]: 130 µM; Isomers modeled [2]: S,R |
| Cc1c(C)n(Cc2ccccc2)c2ncnc(N)c12 [AVI-321] | 1 | 19 | – | – | – | – |
| CC(CNC(=O)c1ccc2c(c1)CCC(=O)N2)C(=O)O (stereo not drawn) [AVI-328] | 2 | – | – | – | – | Ligand efficiency (binding enery per heavy atom) [1]: 0.25; Ki ([1]; dose-response): 210 µM; IC50 [1, 3]: 220 µM; Isomers modeled [2]: R,S |
| Cc1cc2c(=O)n(CCN3C(=O)c4ccccc4S3(=O)=O)nnc2s1 [AVI-341] | 1 | 11 | – | – | – | Average % competition [1, 5]: 11% |
| CC1CCN(C(=O)c2ccc3c(c2)nc(CO)n3C)CC1C(=O)O (stereo not drawn) [AVI-348] | 1 | < 10 | – | – | – | Average % competition [1, 5]: <10% |
| CC(C)(O)[C@H]1CCCN1c1ncnc2[nH]ccc12 [AVI-607, 2-[(2R)-1-{7H-pyrrolo[2,3-d]pyrimidin-4-yl}pyrrolidin-2-yl]propan-2-ol] | 1 | – | – | – | – | Ligand efficiency ([1]; Binding energy per heavy atom): 0.41; Ki [1, 6]: 4.7 µM; Ligand efficiency (binding enery per heavy atom) [1, 6]: 0.41; IC50 [1, 3]: 5.1 µM |
| OC[C@@H]1C[C@H](F)CN1c1ncnc2[nH]ccc12 [AVI-609] | 1 | 52 | – | – | – | inhibition at 200 µM [1, 7]: 52% |
| OC[C@@H]1C[C@H](O)CN1c1ncnc2[nH]ccc12 [AVI-610] | 1 | – | – | – | – | Ki [1, 6]: 150 µM; Ligand efficiency (binding enery per heavy atom) [1, 6]: 0.31; IC50 [1, 8]: 160 µM |
| NC(=O)C1(O)CCN(c2ncnc3[nH]ccc23)C1 (stereo not drawn) [AVI-611] | 1 | 30 | – | – | – | Average % competition [1, 9]: 30%; Isomers modeled [2]: S,S |
| CCC1(O)CCN(c2ncnc3[nH]ccc23)C1 (stereo not drawn) [AVI-612] | 1 | 22 | – | – | – | Average % competition [1, 9]: 22% |
| O[C@@H]1CN(c2ncnc3[nH]ccc23)C[C@H]1F [AVI-616] | 1 | 15 | – | – | – | Average % competition [1, 9]: 15% |
| CC(C)(O)[C@@H]1CCCN1c1ncnc2[nH]ccc12 [AVI-1445, (S)-2-(1-(7H-pyrrolo[2,3-d]pyrimidin-4-yl)pyrrolidin-2-yl)propan-2-ol] | 1 | 75 | 0.12 | TRUE | – | Hill slope [1, 10]: 1.1; Ki [1, 6]: 100 µM; Ligand efficiency (binding enery per heavy atom) [1, 6]: 0.31; Hill slope [1, 11]: 1.6; inhibition at 200 µM [1, 7]: 75%; IC50 [1, 3]: 110 µM; Occupancy difference (refined_occupancy - 2*(1-BDC)) [2]: 0; 1-BDC [2]: 0.12; PanDDA run, overall: Hit [2]: TRUE; PanDDA run, DMSO background map: 1-BDC [2]: 0.12; PanDDA run, DMSO background map: Hit [2]: TRUE; Total number of conformations [2]: 1; X-ray crystal structure ([2]; ligand-bound crystal structure obtained (TRUE)): TRUE; 2*(1-BDC) (%) [2]: 24%; Refined ligand occupancy (%) [2]: 24%; Binding site ([2]; site occupied in X-ray crystal structure): Adenosine |
| Cc1c[nH]c2ncnc(NCC3(O)CCC3)c12 [AVI-3571, 1-(((5-methyl-7H-pyrrolo[2,3-d]pyrimidin-4-yl)amino)methyl)cyclobutan-1-ol] | 1 | – | – | – | – | Hill slope [1, 10]: 1.0; Ki [1, 6]: 14 µM; Ligand efficiency (binding enery per heavy atom) [1, 6]: 0.39; Hill slope [1, 11]: 1.0; IC50 [1, 8]: 15 µM; Occupancy difference (refined_occupancy - 2*(1-BDC)) [2]: 0; 1-BDC [2]: 0.15; X-ray crystal structure ([2]; TRUE = crystal structure with ligand obtained): TRUE; PanDDA run, overall: Hit [2]: TRUE; PanDDA run, DMSO background map: 1-BDC [2]: 0.15 and 0.2; PanDDA run, DMSO background map: Hit [2]: TRUE; Total number of conformations [2]: 2; 2*(1-BDC) (%) [2]: 30%; Refined ligand occupancy (%) [2]: 30%; Binding site ([2]; site of ligand in X-ray crystal structure): Adenosine |
| CCC(Nc1ncnc2[nH]ccc12)C(C)O (stereo not drawn) [AVI-3635] | 1 | 54 | 0.11 and 0.08 | TRUE | 54 | – |
| OCC(CC(F)(F)F)Nc1ncnc2[nH]ccc12 (stereo not drawn) [AVI-3637] | 1 | 50 | 0.21 | TRUE | 50 | – |
| OCC(Nc1ncnc2[nH]ccc12)C1CCC1 (stereo not drawn) [AVI-3638] | 1 | 77 | 0.1 | TRUE | 77 | – |
| O=C(O)C(F)(F)F.O[C@H]1CCC[C@@H]1Nc1ncnc2[nH]ccc12 [AVI-3639] | 1 | 74 | 0.09 | TRUE | 74 | – |
| OCC(CC1CCC1)Nc1ncnc2[nH]ccc12 (stereo not drawn) [AVI-3641] | 1 | 32 | 0.11 | TRUE | 32 | – |

| Compound | Number of isomers bound [2] | inhibition at 200 µM [1, 4] [%] | PanDDA run, TFA/DMSO background map: 1-BDC [2] | PanDDA run, TFA/DMSO background map: Hit [2] | Average % competition [1, 12] [%] | also measured |
| --- | --- | --- | --- | --- | --- | --- |
| OCC(CC(O)c1ccccc1)Nc1ncnc2[nH]ccc12 (stereo not drawn) [AVI-3642] | 1 | < 10 | 0.17 | TRUE | <10 | – |
| CCCC(CO)Nc1ncnc2[nH]ccc12 (stereo not drawn) [AVI-3643] | 1 | 63 | 0.14 | TRUE | – | inhibition at 200 µM ([1]; Single dose, concentration 200 μM, read-out: Average % competition): 63% |
| C#CCC(CO)Nc1ncnc2[nH]ccc12 (stereo not drawn) [AVI-3644] | 1 | 43 | 0.11 | TRUE | 43 | – |
| OC1CCCN(c2ncnc3[nH]ccc23)C1 (stereo not drawn) [AVI-3646] | 1 | 20 | 0.13 | TRUE | – | Average % competition [1, 9]: 20% |
| CC(C)(C)CC(CO)Nc1ncnc2[nH]ccc12 (stereo not drawn) [AVI-3648] | 1 | 27 | 0.16 | TRUE | 27 | – |
| OCC(Nc1ncnc2[nH]ccc12)C1CCCC1 (stereo not drawn) [AVI-3649] | 1 | 68 | 0.11 | TRUE | 68 | – |
| OCC(Cc1c[nH]c2ccccc12)Nc1ncnc2[nH]ccc12 (stereo not drawn) [AVI-3650] | 2 | 71 | 0.11 | TRUE | 71 | Isomers modeled [2]: R,S |
| OCC(Nc1ncnc2[nH]ccc12)C1CC1 (stereo not drawn) [AVI-3651] | 1 | – | 0.16 | TRUE | – | Ki [1, 6]: 45 µM; Ligand efficiency (binding enery per heavy atom) [1, 6]: 0.38; IC50 [1, 8]: 48 µM |
| OC(c1ccccc1)C1CCCN1c1ncnc2[nH]ccc12 (stereo not drawn) [AVI-3652] | 1 | 35 | 0.16 | TRUE | – | inhibition at 200 µM [1, 7]: 35% |
| CC1CCN(c2ncnc3[nH]ccc23)C1CO (stereo not drawn) [AVI-3655] | 1 | 75 | 0.18 | TRUE | – | inhibition at 200 µM [1, 7]: 75% |
| CO[C@@H]1C[C@H](CO)N(c2ncnc3[nH]ccc23)C1 [AVI-3656] | 1 | 41 | – | – | – | inhibition at 200 µM [1, 7]: 41% |
| Cn1cc(CC(CO)Nc2ncnc3[nH]ccc23)cn1 (stereo not drawn) [AVI-3657] | 1 | 24 | 0.09 | TRUE | 24 | – |
| OCC(CC1OCCO1)Nc1ncnc2[nH]ccc12 (stereo not drawn) [AVI-3658] | 1 | 11 | – | – | 11 | – |
| OCC(Nc1ncnc2[nH]ccc12)c1ccco1 (stereo not drawn) [AVI-3659] | 1 | 55 | 0.08 | TRUE | 55 | – |
| OCC(CC1CCCO1)Nc1ncnc2[nH]ccc12 (stereo not drawn) [AVI-3660] | 1 | 18 | 0.17 | TRUE | 18 | – |
| OC1CCN(c2ncnc3[nH]ccc23)C1 (stereo not drawn) [AVI-3661] | – | 11 | 0.12 | TRUE | – | inhibition at 200 µM [1, 7]: 11% |
| OCC(CC1CC1)Nc1ncnc2[nH]ccc12 (stereo not drawn) [AVI-3662] | 1 | 44 | 0.09 | TRUE | 44 | – |
